Where two headings read alike, the source gives them in different places.
Legend:
[1] = test system: plasma cholesterol; test: Blood cholesterol-lowering activity in rats on hypercholesterolemic diet; format: in vivo, rat; conditions: male rats, Altromin C 1061 hypercholesterolemic diet 4 days, dose that reduces the plasma cholesterol concentration by half compared with control animals
Description: Male rats (160-180 g) were subjected, for 4 days, to an Altromin C 1061 hypercholesterolemic diet and treated in parallel orally with the compounds in suspension in a solution of 2% Tween 80 in distilled water.
On the 5th day, the animals not fasting are anaesthetized with ethyl ether, and bled out on EDTA via the abdominal aorta. The blood is immediately centrifuged and the plasma is stored at 4° C.
The plasma cholesterol is then assayed by the CHOD-PAP method (Boehringer Mannheim Ref. 237574). The 50% effective dose (ED50) corresponds to the dose that reduces the plasma cholesterol concentration by half compared with control animals.

[2] = Rattus norvegicus, po, 96 h, read-out: ED50

melting point	Structure (SMILES)	ED50 [1, 2]	ED50 ([1]; oral)
	CCCCCCCCCCCCS[C@H](C(=O)Nc1cc(C)c(O)c(C)c1C)c1ccccc1 [Eflucimibe, reference compound]	0.12 mg/kg	
	CCCCCCCCCCCCS(=O)(=O)C(F)(C(=O)Nc1cc(C)c(O)c(C)c1C)c1ccccc1 (stereo not drawn) [Compound 3, 2′,3′,5′-Trimethyl-4′-hydroxy-α-dodecylsulfonyl-α-fluoro-α-phenylacetanilide]	0.022 mg/kg	
	CCCCCCCCCCCCn1nnc(C(C(=O)Nc2cc(C)c(O)c(C)c2C)c2ccccc2)n1 (single isomer, unassigned; (+)) [Compound 5, (+)-2′,3′,5′-Trimethyl-4′-hydroxy-α-(2-dodecyl-2H-5-tetrazolyl)-α-phenylacetanilide]		0.025 mg/kg
168 °C	CCCCCCCCCCCCn1nnc(C(F)(C(=O)Nc2c(C)c(C)c(N)c(C)c2C)c2ccccc2)n1.Cl (stereo not shown)		
96 °C	Cc1cc(NC(=O)C(F)(c2ccccc2)c2nnn(CCCCCCCCCCCC(F)F)n2)c(C)c(C)c1O (stereo not drawn) [Compound 10, 2′,3′,5′-Trimethyl-4′-hydroxy-α-[2-(12,12-difluoro-dodecyl)-2H-5-tetrazolyl]-α-fluoro-α-phenylacetanilide]	0.029 mg/kg	
	CCCCCCCCCCCCS(=O)(=O)[C@H](C(=O)Nc1cc(C)c(O)c(C)c1C)c1ccccc1 [Compound 1, (S)-2′,3′,5′-Trimethyl-4′-hydroxy-α-dodecylsulfonyl-α-phenylacetanilide]	0.25 mg/kg	
105 °C	CCCCCCCCCCCCn1nnc(C(C(=O)Nc2cc(C)c(O)c(C)c2C)c2ccccc2)n1 (stereo not drawn) [Compound 4, 2′,3′,5′-Trimethyl-4′-hydroxy-α-(2-dodecyl-2H-5-tetrazolyl)-α-phenylacetanilide]	0.029 mg/kg	
	CCCCCCCCCCCCn1nnc(C(F)(C(=O)Nc2cc(C)c(O)c(C)c2C)c2ccccc2)n1 (single isomer, unassigned; (+)) [Compound 9, (+)-21,3′,5′-Trimethyl-4′-hydroxy-α-(2-dodecyl-2H-5-tetrazolyl)-α-fluoro-α-phenylacetanilide]	0.012 mg/kg	
